Measured values from publication PMC13308190, “Endothelial progenitor cell susceptibility to DNA damaging and DDR-modulating compounds determines endothelial differentiation accuracy” (Stem Cell Research & Therapy, 2026).
Each block holds one compound with its values, some of them ahead of it.

Legend:
EC d4 [1] = assay: Alkaline comet assay; details: EC d4 48 h
EC d6 [2] = assay: Alkaline comet assay; details: EC d6 24 h
EC d4 [3] = assay: Mitochondrial membrane potential (TMRM-MitoTracker Green); assay type: cell-based, mouse; details: EC d4 treated 48 h, analysed in EC d6; Dox 0.05 µM
Experimental: Mitochondrial membrane potential (ΔΨm) was analyzed by live-cell imaging using TMRM-MitoTracker Green co-staining. Cells were seeded and differentiated on Poly-D-Lysine-fibronectine-coated live-imaging dishes. For staining, cells were incubated with 200nM MitoTracker Green (Invitrogen) and 50 nM TMRM (Invitrogen) in DMEM (30 min, 37 °C, 5% CO2). After washing with PBS, live-cell microscopy was performed using a spinning disc confocal microscope (PerkinElmer) equipped with a 60x oil-immersion objective (N.A = 1.49) and a Hamamatsu C9100 camera (1000 × 1000 pixel) (excitation (MitoTracker Green): 488 nm, excitation (TMRM): 561 nm). The cells were kept at 37 °C in OptiMEM supplemented with 10 mM HEPES during imaging. The images were obtained at emission wavelength of 527 nm (W55) and 615 nm (W70) for 488 nm and 561 nm excitation, respectively.

EC d6 [4] = assay: EdU incorporation (S-phase activity); assay type: cell-based, mouse; details: EC d6 24 h; Dox up to 0.1 µM
EC d6 [5] = assay: Nuclear γH2AX / 53BP1 foci (DSB); details: EC d6 24 h, equitoxic concentrations
EC d6 [6] = assay: DNA fiber spreading assay; assay type: cell-based, mouse; details: EC d6 24 h; HU: 5 mM, 1 h
Experimental: (§1) To analyze DNA replication fork progression, the DNA fiber spreading assay was performed. Briefly, cells were pulse-labeled with 20 µM CldU (20 min, 37 °C, 5% C0_2) and immediately afterwards with 200 µM IdU (20 min, 37 °C, 5% C02). Cell suspension was applied onto glass slides followed by cell lysis (0.5% SDS, 200 mM Tris–HCl, 50 mM EDTA). After incubation (6 min, RT), slides were tilted upwards to stretch the fibers, dried 6 min lying horizontally flat and fixed (5 min, RT) in methanol: acetic acid (3:1). After drying (7 min, lying horizontally flat) slides were stored overnight in 70% ethanol (4 °C). The next day samples were incubated in 100% methanol (5 min, RT) followed by denaturation in 2.5 M HCl (1 h, RT) and blocking (5% BSA in PBS, 1 h, 37 °C). DNA Fibers were stained with rat anti-BrdU (1:40) for CldU detection and mouse anti-BrdU (1:70) for IdU detection (in 0.5% BSA/PBS; 1 h, RT). After washing (0.05% Tween 20 in PBS and PBS) incubation with secondary antibodies anti-rat 488 (1:400) and anti-mouse 555 (1:250) was performed (1 h, RT, 0.5% BSA in PBS). Following washing with 0.05% Tween 20 in PBS and PBS, the slides were mounted with Fluoroshield (Sigma [Steinheim, Germany]). DNA fibers were analyzed microscopically (Olympus BX43 fluorescence microscope [40 objective]). The length of CldU (green) and IdU (red) tract was measured using ImageJ software, analyzing 200 fibers per experimental condition.

mESC [7] = assay: DNA fiber spreading assay; assay type: cell-based, mouse; details: mESC 24 h; HU: 5 mM, 1 h
Experimental: as §1

EC d4 [8] = assay: Doxorubicin import/export (flow cytometry); assay type: cell-based, mouse; details: EC d4, 2 h pulse then 6 h post-incubation
Experimental: Import and export of Dox were examined via flow cytometry. […] Trypsinized cells were washed with PBS and pelleted by centrifugation (200 x g, 5 min, 4 °C). After additional washing, cells were resuspended in PBS.

mESC [9] = assay: Alkaline comet assay; details: mESC 24 h
[10] = tested on: primary murine cardiac endothelial cells; assay: RT-qPCR mRNA expression; assay type: cell-based, mouse
Experimental: Total RNA was purified using the RNeasy Mini Kit (Qiagen, Hilden, Germany). Reverse transcriptase (RT) reaction was performed with the HighCapacity cDNA Reverse Transcription Kit (Applied Biosystems, Darmstadt, Germany) using 900–2000 ng of RNA. Quantitative RT-qPCR analysis was performed using following conditions: (1) 95 °C–10 min; (2) 45 amplification cycles with 95 °C–15 s, 55 °C–15 s, and 72 °C–17 s; (3) 95 °C–1 min, 55 °C–1 min, 65 °C–5 s. If not stated otherwise, analyses were performed in technical triplicates using pooled samples from two independent experiments (each performed with biological duplicates) by use of a CFX96 cycler (BioRad) and the SensiMix SYBR Kit (Bioline, London, UK). The primers used for mRNA expression analyses are listed in Supplementary Table 1. To ensure the specificity of the amplification product, melting curves were recorded at the end of the run. mRNA expression levels were normalized to β-Actin and Gapdh. Relative mRNA expression in mESC or corresponding untreated controls was set to 1.0. Only changes in gene expression of ≤ 0.5- and ≥ 2-fold were considered as biologically relevant. Fold-changes in gene expression are summarized in Supplementary Table 2.

EC d4 [11] = assay: DNA fiber spreading assay; assay type: cell-based, mouse; details: EC d4 48 h; HU: 5 mM, 1 h
Experimental: as §1

- Dox efflux capacity as compared to the other differentiation stages (EC d4 [8]): enhanced export activity
Compound: COc1cccc2c1C(=O)c1c(O)c3c(c(O)c1C2=O)C[C@@](O)(C(=O)CO)C[C@@H]3O[C@H]1C[C@H](N)[C@H](O)[C@H](C)O1 [Dox, doxorubicin]
- steady-state level of SSB (alkaline comet assay) (EC d4 [1]): no or only a minor increase
- steady-state level of SSB (alkaline comet assay) (EC d6 [2]): no or only a minor increase
- mitochondrial membrane potential (EC d4 [3]): strongest drop in mitochondrial membrane potential
- number of EdU-positive cells (EC d6 [4]): remained unaffected
- DSB formation (γH2AX / 53BP1 foci) (EC d6 [5]): significant increase
- replication fork progression (EC d6 [6]): did not influence fork speed
- replication fork progression (mESC [7]): accelerated fork progression
- steady-state level of SSB (alkaline comet assay) (mESC [9]): significant increase
- Ccn1a mRNA ([10]; 1 µM, 24 h, Fig 7E): 0.52 Fold of untreated control
- Ccnd2 mRNA ([10]; 1 µM, 24 h, Fig 7E): 2.92 Fold of untreated control
- Cdkn1a mRNA ([10]; 1 µM, 24 h, Fig 7E): 12.45 Fold of untreated control
- Cdkn2a mRNA ([10]; 1 µM, 24 h, Fig 7E): 2.56 Fold of untreated control
- Cxc1 mRNA ([10]; 1 µM, 24 h, Fig 7E): 10.16 Fold of untreated control
- E2f1 mRNA ([10]; 1 µM, 24 h, Fig 7E): 0.54 Fold of untreated control
- Glb1 mRNA ([10]; 1 µM, 24 h, Fig 7E): 2.10 Fold of untreated control
- Il6 mRNA ([10]; 1 µM, 24 h, Fig 7E): 16.90 Fold of untreated control
- Il8 mRNA ([10]; 1 µM, 24 h, Fig 7E): 2.54 Fold of untreated control
- Mmp3 mRNA ([10]; 1 µM, 24 h, Fig 7E): 1.42 Fold of untreated control
- Mybl2 mRNA ([10]; 1 µM, 24 h, Fig 7E): 0.053 Fold of untreated control
- Tp53 mRNA ([10]; 1 µM, 24 h, Fig 7E): 1.66 Fold of untreated control
- upregulation of Il6, Cxc1 and Cdkn1a mRNA ([10]; Dox 24 h): about 10 fold

Compound: Nc1ccccc1NC(=O)c1ccc(CNC(=O)OCc2cccnc2)cc1 [EST, entinostat]
- replication fork progression (EC d4 [11]): opposite effects
- replication fork progression (EC d6 [6]): opposite effects
- replication fork progression (mESC [7]): promoted new DNA strand synthesis
